# Data as given in patent US9682126B2, “Postprandial gastrokinetic agent” (ZERIA PHARMACEUTICAL CO., LTD., priority 2013, dated 2017).
# Columns and labels:
# Suncus murinus [1] = assay: Postprandial gastric motility, force transducer on stomach, motility index MI (Example 1); format: in vivo; settings: motilin 300 ng/kg iv after 10-min feed intake
# Protocol: Effects of administration of each of ghrelin and motilin and co-administration of ghrelin and motilin on postprandial gastric motility in Suncus murinus were studied. Each of Suncus motilin (Scrum Inc., Tokyo, Japan) and human ghrelin (Asubio Pharma Co., Ltd., Hyogo, Japan) was dissolved in phosphate buffered saline (PBS) containing 0.1% bovine serum albumin. Suncus murinus (male, outbred KAT strain, 8 to 9 weeks old, 73 to 90 g) was used for the experiment. Each animal was bred in a plastic cage provided with an empty can as a nest box under the following conditions: temperature at 23±2° C., illumination between 8:00 and 20:00, and free intake of commercial trout feed (SP, Nippon Formula Feed Mfg Co., Ltd., Yokohama, Japan). After 3 hours of fasting, Suncus murinus was anesthetized by an intraperitoneal injection of pentobarbital sodium (50 mg/kg). Through a midline incision, the stomach was exposed outside the body, and a force transducer was fixed via suture in the circular muscle direction of the body of stomach. […] Amplified analog signals were converted into digital signals by an analog-to-digital converter (ADC-20, Pico Technology Ltd, St Neots, UK), and the digital signals were recorded on a computer. […] Gastric motility was quantitated using a motility index (MI). A motility index (MI) based on a drug was calculated using the following equation. […]
# Suncus murinus [2] = assay: Gastric motility in interdigestive period, sham-operated vs vagotomized (Example 2); format: in vivo; settings: motilin 50 ng/kg/min iv over 10 minutes
# Protocol: Each of Suncus motilin (Scrum Inc., Tokyo, Japan) and human ghrelin (Asubio Pharma Co., Ltd., Hyogo, Japan) were dissolved in PBS containing 0.1% bovine serum albumin. Suncus murinus (male, outbred KAT strain, 7 to 15 weeks old, 60 to 100 g) was used for the experiment. Each animal was bred in a plastic cage provided with an empty can as a nest box under the following conditions: temperature at 23±2° C., illumination between 8:00 and 20:00, and free intake of commercial trout feed (SP, Nippon Formula Feed Mfg Co., Ltd., Yokohama, Japan). After 3 hours of fasting, Suncus murinus was anesthetized by an intraperitoneal injection of pentobarbital sodium (50 mg/kg). Through a midline incision, the stomach was exposed outside the body, and a force transducer was fixed via suture in the circular muscle direction of the body of stomach. The wire extending from the force transducer was inserted through the abdominal wall, passed under the skin, and exposed at the back of the neck. Thereafter, truncal vagotomy was performed. A lower portion of the esophagus was exposed, both branches of the vagus nerve were isolated, and about 3 mm of the vagus nerve was excised above the hepatic branch and the celiac branch. For sham-operated Suncus murinus, the vagus nerve was exposed, but not excised. An intravenous catheter was inserted in the right jugular, and extracorporeally fixed to the back. The catheter was filled with heparinized saline (100 units/mL) to prevent clotting. From 2 days after the operation, the gastric motility was recorded. Administration of motilin was initiated 10 minutes after completion of spontaneous phase III. Synthesized suncus motilin was continuously injected at 50 ng/kg/min over 10 minutes, and the continuously injected amount was 50 μL/100 g BW/min. Administration of ghrelin was initiated 10 minutes after completion of spontaneous phase II. […] Amplified analog signals were converted into digital signals by an analog-to-digital converter (ADC-20, Pico Technology Ltd, St Neots, UK), and the digital signals were recorded on a computer. Phase III contractions of MMC in conscious Suncus murinus were defined on the basis of those in dogs and humans (that is, clustered contractions with an amplitude of 8 g or more that lasts for 5 minutes or more). Gastric motility was quantitated using a motility index (MI). A motility index (MI) based on a drug was calculated using the following equation. MI (%)=A/B×100 A: AUC of contractions for 10 minutes during which the drug was administered B: […] Statistical analysis After ANOVA, Student's t test was performed.
# subjects = settings: motilin continuously administered intravenously to fasting subjects; cited from earlier work
smiles,measurement,setting,value
CC[C@H](C)[C@H](NC(=O)[C@@H]1CCCN1C(=O)[C@@H](NC(=O)[C@@H](N)Cc1ccccc1)C(C)C)C(=O)N[C@@H](Cc1ccccc1)C(=O)N[C@H](C(=O)N[C@@H](Cc1ccc(O)cc1)C(=O)NCC(=O)N[C@@H](CCC(=O)O)C(=O)N[C@@H](CC(C)C)C(=O)N[C@@H](CCC(N)=O)C(=O)N[C@@H](CCCNC(=N)N)C(=O)N[C@@H](CCSC)C(=O)N[C@@H](CCC(N)=O)C(=O)N[C@@H](CCC(=O)O)C(=O)N[C@@H](CCCCN)C(=O)N[C@@H](CCC(=O)O)C(=O)N[C@@H](CCCNC(=N)N)C(=O)N[C@@H](CC(N)=O)C(=O)N[C@@H](CCCCN)C(=O)NCC(=O)N[C@@H](CCC(N)=O)C(=O)O)[C@@H](C)O [motilin],contractions of the body of the stomach,Suncus murinus [1],did not induce contractions of the body of the stomach
same,motilin-induced phase III-like contractions,"Suncus murinus [2]; both sham-operated and vagotomized, 10 minutes after spontaneous phase III",phase III-like contractions were observed
same,"contraction duration due to motilin, sham-operated vs vagotomized",Suncus murinus [2]; phase I,a significant difference was not observed
same,"motility index (MI) during administration of motilin, sham-operated vs vagotomized",Suncus murinus [2]; phase I,a significant difference was not observed
same,gastric emptying,subjects,accelerate gastric emptying
